Experimental data published in article PMC9030254, “Target Hopping from Protein Kinases to PXR: Identification of Small-Molecule Protein Kinase Inhibitors as Selective Modulators of Pregnane X Receptor from TüKIC Library” (Cells, 2022).

Key:
Assay in all cases: Kinase profiling
Format in all cases: biochemical
[1] = molecular target: T1, TYK2 (Homo sapiens, UniProt P29597)
T1 construct: purchased ProQinase (Freiburg, Germany)
Method: (§1) The analysis was performed by ProQinase (Freiburg, Germany).

[2] = molecular target: T2, GRK4 (Homo sapiens, UniProt P32298)
T2 construct: purchased ProQinase (Freiburg, Germany)
Method: as §1

[3] = molecular target: T3, IKKepsilon (Homo sapiens, UniProt Q14164)
T3 construct: purchased ProQinase (Freiburg, Germany)
T3 sequence (Q14164 1-716): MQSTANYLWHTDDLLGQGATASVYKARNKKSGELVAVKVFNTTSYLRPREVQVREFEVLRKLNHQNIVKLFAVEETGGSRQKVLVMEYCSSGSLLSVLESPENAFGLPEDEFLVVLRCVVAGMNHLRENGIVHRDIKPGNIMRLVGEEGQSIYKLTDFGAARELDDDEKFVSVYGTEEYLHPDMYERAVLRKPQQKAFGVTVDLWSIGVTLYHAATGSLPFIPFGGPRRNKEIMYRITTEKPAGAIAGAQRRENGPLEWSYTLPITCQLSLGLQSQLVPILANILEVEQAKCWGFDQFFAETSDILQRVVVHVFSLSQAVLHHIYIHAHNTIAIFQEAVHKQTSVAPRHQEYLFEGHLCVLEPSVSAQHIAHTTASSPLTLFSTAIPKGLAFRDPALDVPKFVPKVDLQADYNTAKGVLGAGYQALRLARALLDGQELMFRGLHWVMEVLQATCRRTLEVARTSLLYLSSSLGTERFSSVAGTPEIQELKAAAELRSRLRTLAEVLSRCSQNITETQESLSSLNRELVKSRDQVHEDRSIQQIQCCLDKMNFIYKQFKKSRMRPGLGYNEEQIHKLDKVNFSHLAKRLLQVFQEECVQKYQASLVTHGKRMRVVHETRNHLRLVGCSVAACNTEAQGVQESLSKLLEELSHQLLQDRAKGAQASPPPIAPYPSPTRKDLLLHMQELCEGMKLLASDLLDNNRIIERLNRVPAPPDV
Method: as §1

[4] = molecular target: T4, MAPKAPK3 (Homo sapiens, UniProt Q16644)
T4 construct: purchased ProQinase (Freiburg, Germany)
Method: as §1

[5] = molecular target: T5, p38delta (Homo sapiens, UniProt O15264)
T5 construct: purchased ProQinase (Freiburg, Germany)
T5 sequence (O15264 1-365): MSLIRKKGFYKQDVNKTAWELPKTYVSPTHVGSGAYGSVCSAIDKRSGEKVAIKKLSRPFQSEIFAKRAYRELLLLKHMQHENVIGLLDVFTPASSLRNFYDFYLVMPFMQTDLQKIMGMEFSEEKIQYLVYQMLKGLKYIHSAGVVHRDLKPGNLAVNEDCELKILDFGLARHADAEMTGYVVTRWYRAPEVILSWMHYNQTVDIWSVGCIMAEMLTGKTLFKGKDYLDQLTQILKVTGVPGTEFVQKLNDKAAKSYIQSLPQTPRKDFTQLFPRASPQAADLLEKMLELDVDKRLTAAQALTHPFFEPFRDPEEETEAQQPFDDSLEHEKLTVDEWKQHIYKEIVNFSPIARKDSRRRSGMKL
Method: as §1

[6] = molecular target: T6, SIK2 (Homo sapiens, UniProt Q9H0K1)
T6 construct: purchased ProQinase (Freiburg, Germany)
T6 sequence (Q9H0K1 whole entry): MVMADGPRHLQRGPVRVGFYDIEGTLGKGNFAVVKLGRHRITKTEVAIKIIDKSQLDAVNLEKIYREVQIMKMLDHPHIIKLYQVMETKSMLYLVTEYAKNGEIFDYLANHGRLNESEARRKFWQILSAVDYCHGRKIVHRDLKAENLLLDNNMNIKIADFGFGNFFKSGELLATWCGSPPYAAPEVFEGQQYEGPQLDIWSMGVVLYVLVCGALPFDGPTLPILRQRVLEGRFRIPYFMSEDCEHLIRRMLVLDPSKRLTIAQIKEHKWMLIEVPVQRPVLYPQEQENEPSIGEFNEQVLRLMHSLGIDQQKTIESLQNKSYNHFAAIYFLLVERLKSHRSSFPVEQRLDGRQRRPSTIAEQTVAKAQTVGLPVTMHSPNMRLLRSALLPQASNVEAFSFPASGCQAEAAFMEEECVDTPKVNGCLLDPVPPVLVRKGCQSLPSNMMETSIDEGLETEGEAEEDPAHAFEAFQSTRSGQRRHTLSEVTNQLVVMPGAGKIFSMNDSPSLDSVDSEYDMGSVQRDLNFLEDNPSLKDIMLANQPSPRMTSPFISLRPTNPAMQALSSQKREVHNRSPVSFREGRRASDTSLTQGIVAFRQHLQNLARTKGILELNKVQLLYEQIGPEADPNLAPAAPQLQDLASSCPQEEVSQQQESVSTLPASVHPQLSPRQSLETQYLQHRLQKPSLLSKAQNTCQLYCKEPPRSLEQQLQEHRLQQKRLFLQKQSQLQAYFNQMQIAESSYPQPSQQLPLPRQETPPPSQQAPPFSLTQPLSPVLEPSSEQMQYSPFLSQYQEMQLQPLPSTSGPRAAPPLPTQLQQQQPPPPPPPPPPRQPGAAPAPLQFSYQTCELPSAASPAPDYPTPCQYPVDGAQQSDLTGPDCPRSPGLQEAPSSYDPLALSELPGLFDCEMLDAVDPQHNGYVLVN
Method: as §1

[7] = molecular target: T7, WNK2 (Homo sapiens, UniProt Q9Y3S1)
T7 construct: purchased ProQinase (Freiburg, Germany)
Method: as §1

[8] = molecular target: T8, PKCgamma (Homo sapiens, UniProt P05129)
T8 construct: purchased ProQinase (Freiburg, Germany)
Method: as §1

[9] = molecular target: T9, CDK7/CycH/MAT1 (Homo sapiens, UniProt P50613)
T9 construct: purchased ProQinase (Freiburg, Germany)
Method: as §1

[10] = molecular target: T10, AMPKalpha1 (Homo sapiens, UniProt Q13131)
T10 construct: purchased ProQinase (Freiburg, Germany)
T10 sequence (Q13131 10-559 limits assumed): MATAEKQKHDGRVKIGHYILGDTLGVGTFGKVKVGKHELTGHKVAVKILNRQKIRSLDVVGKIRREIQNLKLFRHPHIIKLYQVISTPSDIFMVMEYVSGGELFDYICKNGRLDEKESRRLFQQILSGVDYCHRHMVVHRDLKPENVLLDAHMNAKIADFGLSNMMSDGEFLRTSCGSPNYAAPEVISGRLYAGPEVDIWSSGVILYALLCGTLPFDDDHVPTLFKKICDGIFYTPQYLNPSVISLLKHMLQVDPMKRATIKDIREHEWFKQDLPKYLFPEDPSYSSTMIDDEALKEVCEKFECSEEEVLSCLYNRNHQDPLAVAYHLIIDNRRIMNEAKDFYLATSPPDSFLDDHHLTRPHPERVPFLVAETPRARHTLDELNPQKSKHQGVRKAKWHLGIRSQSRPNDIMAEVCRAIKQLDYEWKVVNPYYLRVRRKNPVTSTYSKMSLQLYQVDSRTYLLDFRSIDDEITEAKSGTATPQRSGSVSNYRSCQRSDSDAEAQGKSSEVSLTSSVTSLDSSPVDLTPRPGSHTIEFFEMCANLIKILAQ
Method: as §1

[11] = molecular target: T11, SNARK (Homo sapiens, UniProt Q9H093)
T11 construct: purchased ProQinase (Freiburg, Germany)
T11 sequence (Q9H093 1-628): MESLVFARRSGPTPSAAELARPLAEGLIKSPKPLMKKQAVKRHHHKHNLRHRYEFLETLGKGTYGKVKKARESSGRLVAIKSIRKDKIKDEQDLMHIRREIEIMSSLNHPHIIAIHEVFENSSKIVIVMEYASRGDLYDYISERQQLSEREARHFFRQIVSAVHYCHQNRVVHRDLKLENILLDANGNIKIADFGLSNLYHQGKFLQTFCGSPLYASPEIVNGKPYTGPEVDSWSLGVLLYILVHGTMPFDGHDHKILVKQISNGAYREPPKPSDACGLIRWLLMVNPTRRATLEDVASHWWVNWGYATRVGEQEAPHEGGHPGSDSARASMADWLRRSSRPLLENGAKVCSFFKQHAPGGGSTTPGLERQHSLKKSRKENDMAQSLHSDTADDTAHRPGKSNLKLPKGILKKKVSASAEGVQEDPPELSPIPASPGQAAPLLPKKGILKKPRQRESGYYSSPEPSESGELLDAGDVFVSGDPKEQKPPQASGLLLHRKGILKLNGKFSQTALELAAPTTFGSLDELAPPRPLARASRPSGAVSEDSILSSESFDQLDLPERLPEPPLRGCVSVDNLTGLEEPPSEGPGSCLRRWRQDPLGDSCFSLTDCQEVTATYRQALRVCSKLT
Method: as §1

[12] = molecular target: T12, INSRR (Homo sapiens, UniProt P14616)
T12 construct: purchased ProQinase (Freiburg, Germany)
T12 sequence (P14616 27-1297): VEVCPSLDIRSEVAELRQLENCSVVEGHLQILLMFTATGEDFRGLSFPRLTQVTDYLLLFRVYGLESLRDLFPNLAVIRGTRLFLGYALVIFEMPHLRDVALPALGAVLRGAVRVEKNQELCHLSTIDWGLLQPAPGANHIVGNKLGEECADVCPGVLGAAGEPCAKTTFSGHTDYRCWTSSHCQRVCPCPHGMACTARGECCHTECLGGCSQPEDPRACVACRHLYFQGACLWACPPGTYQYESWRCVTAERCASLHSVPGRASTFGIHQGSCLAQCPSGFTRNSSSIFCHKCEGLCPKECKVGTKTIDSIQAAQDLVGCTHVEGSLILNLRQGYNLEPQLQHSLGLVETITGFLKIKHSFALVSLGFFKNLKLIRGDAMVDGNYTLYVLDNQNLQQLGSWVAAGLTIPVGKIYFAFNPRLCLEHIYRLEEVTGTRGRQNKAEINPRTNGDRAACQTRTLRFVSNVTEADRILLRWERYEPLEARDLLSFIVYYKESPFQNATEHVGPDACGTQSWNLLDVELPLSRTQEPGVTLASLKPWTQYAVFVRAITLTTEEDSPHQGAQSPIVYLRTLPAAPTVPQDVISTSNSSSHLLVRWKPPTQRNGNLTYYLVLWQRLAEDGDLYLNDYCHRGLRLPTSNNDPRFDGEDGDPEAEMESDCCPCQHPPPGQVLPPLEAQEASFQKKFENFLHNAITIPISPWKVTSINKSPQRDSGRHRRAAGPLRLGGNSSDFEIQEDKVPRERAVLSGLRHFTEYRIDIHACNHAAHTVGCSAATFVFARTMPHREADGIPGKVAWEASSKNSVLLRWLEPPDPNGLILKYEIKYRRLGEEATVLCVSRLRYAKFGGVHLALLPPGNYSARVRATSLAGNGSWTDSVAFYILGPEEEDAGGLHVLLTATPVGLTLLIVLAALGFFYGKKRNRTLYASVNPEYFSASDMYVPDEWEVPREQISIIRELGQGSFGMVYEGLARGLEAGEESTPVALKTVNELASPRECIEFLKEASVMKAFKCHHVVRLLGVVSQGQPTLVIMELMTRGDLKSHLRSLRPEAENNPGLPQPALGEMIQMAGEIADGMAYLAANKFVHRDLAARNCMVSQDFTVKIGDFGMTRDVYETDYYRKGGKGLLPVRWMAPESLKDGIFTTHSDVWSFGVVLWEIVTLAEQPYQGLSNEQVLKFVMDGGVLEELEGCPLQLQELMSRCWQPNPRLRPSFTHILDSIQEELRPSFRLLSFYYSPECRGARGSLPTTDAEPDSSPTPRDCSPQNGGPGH
Method: as §1

[13] = molecular target: T13, VEGFR1 (Homo sapiens, UniProt P17948)
T13 construct: purchased ProQinase (Freiburg, Germany)
Method: as §1

[14] = molecular target: T14, TTBK1 (Homo sapiens, UniProt Q5TCY1)
T14 construct: purchased ProQinase (Freiburg, Germany)
T14 sequence (Q5TCY1 whole entry): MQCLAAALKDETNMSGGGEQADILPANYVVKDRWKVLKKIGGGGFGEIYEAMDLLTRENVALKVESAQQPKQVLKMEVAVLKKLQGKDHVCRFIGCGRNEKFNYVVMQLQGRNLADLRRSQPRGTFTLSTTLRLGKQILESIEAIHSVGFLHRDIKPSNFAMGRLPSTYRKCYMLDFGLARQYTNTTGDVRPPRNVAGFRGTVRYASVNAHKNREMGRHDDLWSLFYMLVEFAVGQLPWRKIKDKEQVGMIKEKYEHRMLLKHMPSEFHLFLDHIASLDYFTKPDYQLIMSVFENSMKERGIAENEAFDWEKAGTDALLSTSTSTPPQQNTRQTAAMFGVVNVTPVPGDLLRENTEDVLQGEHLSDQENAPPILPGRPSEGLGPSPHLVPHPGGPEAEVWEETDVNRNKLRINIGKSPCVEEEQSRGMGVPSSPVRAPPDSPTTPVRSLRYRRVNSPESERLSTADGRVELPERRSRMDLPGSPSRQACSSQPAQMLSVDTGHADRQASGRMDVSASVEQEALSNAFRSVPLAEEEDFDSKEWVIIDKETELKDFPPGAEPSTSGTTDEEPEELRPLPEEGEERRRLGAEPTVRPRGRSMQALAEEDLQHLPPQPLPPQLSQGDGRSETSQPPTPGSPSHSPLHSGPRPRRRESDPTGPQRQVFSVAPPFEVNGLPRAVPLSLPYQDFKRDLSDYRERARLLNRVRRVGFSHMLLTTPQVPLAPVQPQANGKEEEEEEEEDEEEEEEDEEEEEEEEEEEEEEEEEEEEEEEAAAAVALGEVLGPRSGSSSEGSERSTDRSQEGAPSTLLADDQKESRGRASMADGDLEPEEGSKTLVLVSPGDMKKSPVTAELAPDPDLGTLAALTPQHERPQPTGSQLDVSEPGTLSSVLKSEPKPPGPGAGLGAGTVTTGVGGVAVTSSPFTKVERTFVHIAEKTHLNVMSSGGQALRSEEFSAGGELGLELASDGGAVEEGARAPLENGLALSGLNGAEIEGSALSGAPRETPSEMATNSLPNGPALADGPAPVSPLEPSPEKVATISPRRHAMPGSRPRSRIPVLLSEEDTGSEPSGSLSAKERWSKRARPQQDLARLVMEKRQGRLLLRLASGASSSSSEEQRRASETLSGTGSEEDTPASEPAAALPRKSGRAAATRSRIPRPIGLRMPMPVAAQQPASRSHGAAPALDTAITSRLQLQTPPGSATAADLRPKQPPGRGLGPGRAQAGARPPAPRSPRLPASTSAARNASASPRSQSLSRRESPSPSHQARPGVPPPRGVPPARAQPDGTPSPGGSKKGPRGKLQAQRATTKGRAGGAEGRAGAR
Method: as §1

Row | SMILES | Residual activity ([1]; 1.0E-05 M) | Residual activity ([1]; 1.0E-06 M) | Residual activity ([2]; 1.0E-05 M) | Residual activity ([2]; 1.0E-06 M) | Residual activity ([3]; 1.0E-05 M) | Residual activity ([3]; 1.0E-06 M) | Residual activity ([4]; 1.0E-05 M) | Residual activity ([4]; 1.0E-06 M) | Residual activity ([5]; 1.0E-05 M) | Residual activity ([5]; 1.0E-06 M) | Residual activity ([6]; 1.0E-05 M) | Residual activity ([6]; 1.0E-06 M) | Residual activity ([7]; 1.0E-05 M) | Residual activity ([7]; 1.0E-06 M) | Residual activity ([8]; 1.0E-05 M) | Residual activity ([8]; 1.0E-06 M) | Residual activity ([9]; 1.0E-05 M) | Residual activity ([9]; 1.0E-06 M) | Residual activity ([10]; 1.0E-05 M) | Residual activity ([10]; 1.0E-06 M) | also measured
1 | O=C(Cc1ccccc1)Nc1ccc(F)c(Nc2ccc3c(c2)CCCCC3=O)c1 [Compound 100] | 83 % of control | 95 % of control | 86 % of control | 116 % of control | 101 % of control | 103 % of control | 50 % of control | 109 % of control | 85 % of control | 93 % of control | 81 % of control | 89 % of control | 100 % of control | 95 % of control | 78 % of control | 77 % of control | 83 % of control | 94 % of control | 101 % of control | 112 % of control | inhibition at 10 µM ([4]; 10 µM): ≥ 50%; Residual activity ([11]; 1.0E-05 M): 92 % of control; Residual activity ([11]; 1.0E-06 M): 107 % of control; Residual activity ([12]; 1.0E-05 M): 90 % of control; Residual activity ([12]; 1.0E-06 M): 92 % of control; Residual activity ([13]; 1.0E-05 M): 93 % of control; Residual activity ([13]; 1.0E-06 M): 100 % of control; Residual activity ([14]; 1.0E-05 M): 126 % of control; Residual activity ([14]; 1.0E-06 M): 108 % of control
2 | O=C(Nc1ccc(F)c(Nc2ccc3c(c2)CCCCC3=O)c1)c1cccc(F)c1 [Compound 109] | 93 % of control | 102 % of control | 130 % of control | 103 % of control | 92 % of control | 95 % of control | 65 % of control | 98 % of control | 98 % of control | 91 % of control | 82 % of control | 93 % of control | 96 % of control | 90 % of control | 63 % of control | 81 % of control | 92 % of control | 89 % of control | 98 % of control | 99 % of control | Residual activity ([11]; 1.0E-05 M): 98 % of control; Residual activity ([11]; 1.0E-06 M): 105 % of control; Residual activity ([12]; 1.0E-05 M): 83 % of control; Residual activity ([12]; 1.0E-06 M): 92 % of control; Residual activity ([13]; 1.0E-05 M): 93 % of control; Residual activity ([13]; 1.0E-06 M): 101 % of control; Residual activity ([14]; 1.0E-05 M): 115 % of control; Residual activity ([14]; 1.0E-06 M): 101 % of control
